In the NIST ThermoML archive (doi:10.1021/je300339q):

Columns and labels:
[1] = 101.33 kPa, Liquid; for viscosity: Capillary tube (Ostwald / Ubbelohde) method; for mass density: Vibrating tube method
[2] = mn = molality of the nth substance listed, in mol/kg; conditions: 101 kPa, Liquid, Direct current cell with electrodes

CO [methanol]
[1]
Conditions	mass density [kg/m3]	viscosity [mPa·s]
308.15 K	777.18	0.4747
313.15 K	772.5	0.444
318.15 K	767.7	0.4185

CC#N [acetonitrile]
[1]
Conditions	mass density [kg/m3]	viscosity [mPa·s]
308.15 K	765.64	0.3125
313.15 K	759.7	0.3042
318.15 K	755.01	0.2903

CCCCn1cc[n+](CCC)c1.[Br-] [1-butyl-3-propyl-1H-imidazolium bromide] + CO
molar conductivity [S·m2/mol], [2]
Conditions	308 K	313 K	318 K
m1 = 0.005755	0.006546	–	0.00748
m1 = 0.007673	0.006395	0.006815	0.00729
m1 = 0.01023	0.006239	0.006658	0.007119
m1 = 0.01364	0.006083	0.006493	0.006946
m1 = 0.01819	0.005932	0.006333	0.006781
m1 = 0.02425	0.005792	0.006185	0.006627
m1 = 0.03234	0.005668	0.006052	0.006491
m1 = 0.04311	0.005561	0.005936	0.006371
m1 = 0.05749	0.005468	0.005832	0.006257
m1 = 0.07665	0.005372	0.005703	0.006123
m1 = 0.09017	0.005304	0.005611	0.006016
m1 = 0.1002	0.005238	0.00554	0.005923

CCCCn1cc[n+](CCC)c1.[Br-] [1-butyl-3-propyl-1H-imidazolium bromide] + O
molar conductivity [S·m2/mol], [2]
Conditions	308 K	313 K	318 K
m1 = 0.005651	0.012224	0.013136	0.01387
m1 = 0.007536	0.012106	0.013013	0.01376
m1 = 0.01005	0.011972	0.012872	0.013625
m1 = 0.01341	0.011818	0.012712	0.013474
m1 = 0.0179	0.011642	0.012531	0.013305
m1 = 0.02389	0.011441	0.01232	0.013116
m1 = 0.0319	0.011212	0.012091	0.012905
m1 = 0.04262	0.01095	0.011824	0.012669
m1 = 0.05696	0.01065	0.011518	0.012401
m1 = 0.07621	0.010304	0.011165	0.012094
m1 = 0.08987	0.010084	0.01094	0.011898
m1 = 0.1	0.00996	0.0108	0.01177

CCCCn1cc[n+](CCC)c1.[Br-] [1-butyl-3-propyl-1H-imidazolium bromide] + CC#N
molar conductivity [S·m2/mol], [2]
Conditions	308 K	313 K	318 K
m1 = 0.01014	0.00955	0.010075	0.01063
m1 = 0.01352	0.00916	0.009604	0.010128
m1 = 0.01803	0.008751	0.009155	0.009627
m1 = 0.02405	0.008325	0.008691	0.009114
m1 = 0.0275	0.008123	–	–
m1 = 0.03209	0.007883	0.008213	0.008595
m1 = 0.04281	0.007424	0.007724	0.008054
m1 = 0.04875	–	0.007467	0.007807
m1 = 0.05714	0.006944	0.007222	0.007523
m1 = 0.0656	0.006707	0.006956	0.007255
m1 = 0.07628	0.006433	0.006701	0.006968
m1 = 0.08982	0.006124	0.006393	0.006648
m1 = 0.09987	0.00592	0.006199	0.006435
